This is an account of results in patent US9776992B2, “1-oxo-1,2-dihydroisoquinolin-7-yl-(5-substituted-thiophen-2-yl)-sulfonamide compounds, formulations containing those compounds, and their use as AICARFT inhibitors in the treatment of cancers” (Eli Lilly and Company, priority 2014, dated 2017).

Experiment [1] has as its target T1, AICARFT (Homo sapiens, UniProt P31939). Put plainly: AICARFT enzyme assay (LC-MS of IMP and ZMP). In kind it is biochemical. The arrangement: made in house; host or cells: E. coli BL21(DE3). The following applies: summary of Table 15. How it is done:
Human AICARFT (NCBI accession number: NM_004044.6) cDNA is purchased from Openbiosystem Co. (Cat# MHS1011-62310, Clone ID: 4300570, accession: BC008879). The nucleotide sequence encoding full-length human AICARFT is inserted into pET21d (Novagen) vector with an N-terminal HIS tag. Bacterial BL21(DE3) (Novagen) is used as an expression host, and the induction of protein expression is carried out in 2×TY media with 1 mM IPTG at 18° C. overnight. Cell pellets are stored at −80° C. for subsequent protein purification. Protein purification is conducted at 4° C. Frozen cell pellets are lysed by incubation with stirring in 50 mL cold lysis buffer (50 mM Tris-HCl, pH 7.5, 300 mM NaCl, 10% glycerol, 0.1% Triton X-100, 0.5 mg/mL lysozyme, 5 U/mL benzonase, 1 mM DTT, 10 mM imidazole, and Roche complete EDTA-free protease inhibitor) per liter cell pellet and sonication. Cell lysates are clarified by centrifugation in a Bechman JA-18 rotor for 45 min at 16,500 rpm. The supernatant is incubated with Ni-NTA agarose resin (Qiagen) for 3 hours, followed by an initial batch wash with 10 resin volume of buffer A (50 mM Tris-HCl, pH 7.5, 300 mM NaCl, 10% glycerol, 1 mM DTT, 10 mM imidazole) containing 0.1% Triton X-100. The resin is then packed onto a column and washed with buffer A. The HIS-tagged AICARFT protein is eluted with 10-500 mM imidazole gradient in buffer A. Pooled HIS-AICARFT containing fractions are concentrated, loaded onto a HiLoad 26/600 Superdex 200 column (GE Healthcare Biosciences), and eluted with storage buffer (50 mM Tris-HCl, pH7.5, 150 mM NaCl, 1 mM DTT, 10% Glycerol). Fractions containing HIS-AICARFT are pooled and protein concentration determined by the Bradford assay using BSA as standard. The protein is aliquoted and stored at −80° C.
One of the substrates of the enzyme reaction, 10-formyltetrahydrofolate (10-F-THFA), has limited chemical stability and is therefore synthesized on the same day that the ATIC enzyme assay is performed. The general synthetic route is described in P. Rowe, Methods Enzymol., 18, 733-735, (1971) and J. Rabinowitz, Methods Enzymol., 6, 814-815, (1963). The first step in this synthesis is the conversion of folinic acid (Sigma CAS 1492-18-8) to 5,10-methenyltetrahydrofolic acid (5,10-M-THFA). This conversion typically takes place the day before the enzyme assay is performed, but can be performed up to 1 week earlier and stored at room temperature. To folinic acid (81.6 mg) is added β-mercaptoethanol (2 mL), and 37% concentrated HCl (80 μL), is added. This reaction incubates a minimum of 3 hours at room temperature, with occasional mixing. The color changes from clear to yellow visually, and the complete conversion of folinic acid to 5,10-M-THFA is monitored by spectral analysis using a quartz cuvette. The UV absorption will change from 266 nm to 356 nm during this step. […] On the morning of the assay, the 80 mM 5,10-M-THFA is diluted to 1.6 mM in 40 μM ammonium bicarbonate (made fresh that day). This reaction incubates 3-5 hours at room temperature. The color changes from yellow to clear visually, and the conversion of 5,10-M-THFA to 10-F-THFA is monitored by spectral analysis using a quartz cuvette. The UV absorption will change from 356 nm to 258 nm during this step. […] Test compounds are prepared in DMSO to make a 10 mM stock solution. The stock solution is serially diluted 3-fold in DMSO to obtain a ten-point dilution curve with final compound concentrations ranging from 100 μM to 5 nM. The final DMSO concentration in the assay is 5%.
To each well of a 384-well polypropylene assay plate (NUNC 264573), […] of DMSO (control wells) or compound in DMSO and 9 μL of 55.56 μM ZMP (Sigma-Aldrich CAS 3031-94-5) in water are added. Then, 10 μL of 200 μM 10-F-THFA and 6 nM ATIC enzyme in 40 μM ammonium bicarbonate is added. […] The assay is incubated for 1 hour at room temperature, after which 40 μL of ACN is added to stop the reaction.

The target in experiment [2] is T1, AICARFT. Nature of the experiment: MS detection of ZMP in low folate media cultured NCI-H460 cells. It counts as cell-based. The conditions noted are these: low levels of folate in the media; summary of Table 16. The arrangement: endogenous in cells; host or cells: NCI-H460. The method, then: Grow NCI-H460 cells in complete high folate RPMI media (ATCC #30-2001) until cellular confluence reaches ˜80%. Wash cells with PBS, trypsinize, resuspend cells in complete low folate RPMI media (Gibco #27016-021) and perform a cell count. Transfer 1.25×10^6 cells to a T225 flask containing complete low folate RPMI media (40 mL). Grow for seven days. Split cells again with complete low folate media if confluence surpasses 80%. Wash cells with PBS, trypsinize, resuspend cells in complete low folate RPMI media, and perform a cell count. Aliquot 10×10^6 cells in complete low folate media (1 mL)+5% DMSO per cryovial. Use a cell freezing apparatus to freeze cells in a slow and controlled manner in a −80° C. freezer. The next day, transfer cells to liquid nitrogen for long term storage. Thaw frozen cells from cryovial in 37° C. water bath, wash cells once with low folate assay medium: folate free RPMI 1640 medium (Gibco, #27016-021), Glucose (Sigma, #G5767), Hepes (Hyclone, #SH30237.01), Na Pyruvate (Hyclone, #Sh30239.01), 10% FBS (Hyclone, #SH30070.03). Adjust cells concentration to 250,000 cells/mL with medium, plate cells by adding 100 μl/well (25,000 cells/well) into Biocoat poly-D-lysine 96-well plate (BD, #35-4640), and incubate at 37° C. overnight with 5% CO2. Treat cells with 20 μl/well compound diluted in media containing 3% DMSO. Incubate at 37° C. for 16 hours with 5% CO2, then remove the medium and add 1× SureFire Lysis Buffer (50 μL) (PerkinElem, SureFire® Kit component) to each well and incubate at room temperature for 10 min with gentle shaking.
Cells grown in a 96-well plate have the media removed and are lysed in AlphaScreen® SureFire® lysis buffer. Standard curves containing ZMP, dUMP and AICAr at concentrations of 5-10,000 ng/mL are prepared in 40 mM ammonium acetate, pH 4. Aliquots (40 μL) of each standard or sample are combined in a deep 96-well plate with 160 μL of internal standard solution containing ^13C5-ZMP (custom synthesis) and ^13C5-AICAr (custom synthesis) at 100 ng/mL in 40 mM ammonium acetate, pH 4. A Beckman Biomek FX liquid handler is used to add 400 μL of DCM to each sample. Samples are sealed, vortexed for 5 minutes, and placed in the refrigerator for at least 30 minutes. The samples are centrifuged for 10 minutes at 4,000 rpm and 4° C. using an Eppendorf 5810R centrifuge, and the Biomek liquid handler is used to transfer 75 μL of the aqueous layer into a clean 96-well plate. The plates are sealed prior to analysis.
The LC-MS method utilizes a Shimadzu Prominence 20A HPLC system connected to an AB Sciex 5500™ or an AB Sciex 6500™ triple quadrupole mass spectrometer running Analyst® 2.1 software. Extracted samples are separated using a Thermo Hypercarb™ Javelin guard column (2.1×20 mm, […]) with an injection volume of 15 μL and a flow rate of 1 mL/minute. Mobile phase A is a 95:5 mixture of 50 mM ammonium formate, pH 4 and ACN. Mobile phase B is a 70:30 mixture of ACN and MeOH spiked with 0.3% formic acid and 2% concentrated ammonium hydroxide solution (v/v). The gradient is as follows: 0 minutes, 0% B; 0.25 minutes, 0% B; 2.00 minutes, 30% B; 2.01 minutes, 95% B; 3.50 minutes, 95% B, 3.51 minutes, 0% B, 5.00 minutes, stop.
The mass spectrometer is operated in positive ion TurboIonSpray® multiple reaction monitoring mode with a source temperature of 700° C. The precursor and fragment ions for each analyte are: ZMP (339→110), ^13C5-ZMP (344→110), dUMP (309→81), AICAr (259→127) and ^13C5-AICAr (264→127). Calibration curves are constructed by plotting analyte concentrations vs. analyte/internal standard peak area ratios and performing a linear fit of the data using a 1/concentration weighting with AB Sciex MultiQuant™ 2.1 software. Back-calculated ZMP concentrations are fit to a four-parameter logistic equation using ACTIVITYBASE 4.0 to determine IC50 values.

T1 sequence (P31939 whole entry): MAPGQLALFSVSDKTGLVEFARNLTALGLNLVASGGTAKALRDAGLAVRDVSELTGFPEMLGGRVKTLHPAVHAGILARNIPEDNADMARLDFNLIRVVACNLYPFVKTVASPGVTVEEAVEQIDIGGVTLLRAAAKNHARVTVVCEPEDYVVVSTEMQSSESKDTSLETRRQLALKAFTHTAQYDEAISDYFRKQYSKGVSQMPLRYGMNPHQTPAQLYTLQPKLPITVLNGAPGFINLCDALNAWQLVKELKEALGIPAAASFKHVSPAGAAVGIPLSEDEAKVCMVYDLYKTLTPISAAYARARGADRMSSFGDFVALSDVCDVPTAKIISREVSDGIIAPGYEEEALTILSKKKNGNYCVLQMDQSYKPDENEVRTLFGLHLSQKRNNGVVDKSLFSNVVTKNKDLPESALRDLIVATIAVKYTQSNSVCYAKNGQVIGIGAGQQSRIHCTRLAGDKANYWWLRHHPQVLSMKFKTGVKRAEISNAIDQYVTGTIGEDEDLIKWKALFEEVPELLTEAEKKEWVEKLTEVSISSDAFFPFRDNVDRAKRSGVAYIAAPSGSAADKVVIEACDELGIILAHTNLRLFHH

As to `O=c1[nH]ccc2cc(F)c(NS(=O)(=O)c3ccc(N4CC[C@H](O)C4)s3)cc12` [Example 8, N-(6-Fluoro-1-oxo-1,2-dihydroisoquinolin-7-yl)-5-[(3S)-3-hydroxypyrrolidin-1-yl]thiophene-2-sulfonamide], in experiment [1], the “AICARFT inhibition in enzyme assay (in words)” value is “inhibit AICARFT”. For the same molecule, the “AICARFT inhibition in low folate media assay (in words)” value in experiment [2] was “still inhibit AICARFT”.
